The values that follow are results of earlier work, collected in patent publication US9540416B2, “Purification process” (GLAXOSMITHKLINE BIOLOGICALS S.A., priority 2012, dated 2017).

Entries after “also recorded” stand apart in the source; their conditions may differ.

One series concerns mice and other mammals. The settings on record: in mice and other mammals.
For series [1] the following is noted: relative to other Quillaja saponins.

For the substance QS-18, the adjuvant activity entry in the series on mice and other mammals is given as “significant adjuvant activity”. Also, the toxicity entry in series [1] is recorded as “more toxic at lower doses than other Quillaja saponins”. On to QS-17, for which the adjuvant activity entry with mice and other mammals is reported as “significant adjuvant activity”. On to QS-21, for which the adjuvant activity result in the series with mice and other mammals is “significant adjuvant activity; also recorded: strong adjuvant activity”. Besides, in series [1], the toxicity entry was “low toxicity”.
